The term IC50 denotes the midpoint of a concentration-inhibition curve.

For assay [1], the system named is LN229 microcancer spheroids. In words: On-chip drug testing of LN229 microcancer spheroids in microchip hanging drop 3D culture. The assay is classed as cell-based. Conditions: Homo sapiens, LN-229; measured on day 9 post cell seeding; drug loaded on day 3; 500 cells/well; 12 wells per concentration, 10 uM to 100 pM. An excerpt:
In contrast, conventional hanging drop methods used to extract the formed tumor spheroids and then performing an end-point only analysis in a separate well plate. Dasatinib was selected for drug testing, and introduced after 3 days of culture in the chip. […] One process for introducing the drugs on chip is as follows. The chip was kept upright inside mineral oil and centrifuged briefly to bring down the spheroids. Next, appropriate volume of media with drugs is loaded on chip through oil and incubated for 30 minutes to reach a homogeneous concentration. […] The chip was partitioned as before by using oil, inverted, and daily measurements of green and red fluorescence were taken. […]
The total number of cells were extracted from the off-chip culture into a 1.7 mL tube and then centrifuged at 200 g for 5 min so that all cells settle to the bottom of the tube. […] To stop the PKH 26 Red Fluorescence staining, media with FBS was added to the cell and dye solution. […]
Spheroid Imaging: Real time imaging was done daily after seeding with an upright Olympus BX63 fluorescence microscope with a 10× objective (0.3 NA). […] Tiles and Z-stacks of 10 um slice thickness of the area with spheroids or shapes were taken of chips in bright-field, GFP and RFP fluorescence wavelengths. The CellTox green fluorescence dye was captured using the GFP fluorescence and the PKH Red dye was captured using the RFP. […]

Assay [2] concerns PDX microcancers (GBM8 patient-derived xenograft glioblastoma cells). Briefly: On-chip drug testing of PDX microcancer spheroids in microchip hanging drop 3D culture. Format: cell-based. The following applies: Homo sapiens; measured on day 9 post cell seeding; drug loaded on day 3; 500 cells/well; 12 wells per concentration, 10 uM to 100 pM.
Method: The harvest cells from the xenograft represented the cellular diversity of the PDX brain tumor.
Dasatinib was selected for drug testing, and introduced after 3 days of culture in the chip. […] One process for introducing the drugs on chip is as follows. The chip was kept upright inside mineral oil and centrifuged briefly to bring down the spheroids. Next, appropriate volume of media with drugs is loaded on chip through oil and incubated for 30 minutes to reach a homogeneous concentration. The volume of drugs loaded depends on the number of spheroids being cultured or wells filled with media on chip, which in turn, are defined by the size and numbers of PDMS reservoirs initially used for cell seeding. The volume of media with drugs added is usually 5 times the volume of wells containing spheroids. […] The chip was partitioned as before by using oil, inverted, and daily measurements of green and red fluorescence were taken.

As to `Cc1nc(Nc2ncc(C(=O)Nc3c(C)cccc3Cl)s2)cc(N2CCN(CCO)CC2)n1` [Dasatinib], the IC50 is 95.9 nM in assay [1] and 13.8 nM in assay [2].

Source of the values: patent US11845084B2, “Microchip high density hanging drop three-dimension culture platform” (The Board of Trustees of the University of Illinois, priority 2020, dated 2023).
